# Source: patent US11229628B2, “TRPA1 and TRPV4 inhibitors and methods of using the same for organ-specific inflammation and itch” (Duke University, priority 2015, dated 2022)
# “Also recorded” adds a separate entry of the source. Where a SMILES comes first, the peptide text is derived from it. [ ]: non-standard residue; d: D form.
# What was measured:
# ET1 expression in 1° MK = experiment: ET1 expression by UVB-exposed 1° MK (immunocytochemistry); assay type: cell-based, mouse; conditions: 295 nm UVB-LED, 24 hours
# Method: 1° MK were exposed to UVB using the UV optical system (295 nm LED). 24 hours later the cells were fixed and fluorescently immunolabeled for ET1. Digital images were captured and subjected to morphometry.
# Mouse keratinocytes were cultured on collagen coated quartz coverslips and then stimulated from the bottom using the previously mentioned UV optical system using the 295 nm LED. 24 hours later the cells were fixed in 4% formaldehyde in PBS for 20 minutes, permeabilized with 0.1% Triton X-100 in PBS for 10 minutes, washed, then blocked in 10% normal goat serum in PBS for 45 minutes. Coverslips were incubated overnight with primary antibody mouse anti-ET1 (1:200; Abcam), washed three times in PBS and incubated with secondary antibody for 2 hours at 25° C. Coverslips were washed three times in PBS, once with double-distilled H2O. Digital images were captured using a 40× immersion lens on the BX61 Olympus upright microscope. Morphometric analysis was conducted using ImageJ freeware with tailored regions-of-interest.
# (§1) We tested whether UVB causes ET1 upregulation in a TRPV4-dependent manner. Given the exquisite wave-length dependence of ET1 expression in 1° MKs, we resorted to the UVB-LED device as for Ca++ imaging (FIG. 6A and FIG. 2A-D). […] Consistent with its effects on UVB-evoked Ca++ transients, PLC-inhibitor U73122 also dampened ET1 expression. […] This leads to TRPV4-dependent Ca++ signaling, which in turn amplifies ET1 signaling in a paracrine/autocrine fashion.
# [1] = tested on: primary mouse epidermal keratinocytes (1° MK); experiment: UVB-evoked Ca++ signaling in primary mouse keratinocytes (fluo-4 imaging); assay type: cell-based; conditions: for UVB-evoked Ca++ signaling: fluo-4 ΔF/F0, GSK205 20 μM; for ET1-augmented UVB-evoked Ca++ signaling: UVB and ET1 co-exposure
# Method: Ca++ imaging of 1° MK was conducted following routine procedures. For UVB stimulation, a customized device was built. The system comprised a printed circuit board for electrical interconnects and mechanical support and an ultraviolet light-emitting diode (UV LED).
# The operating wavelength was 295 nm (FIG. 2A), with a full-width half-max of 12 nm. The optical power was 500 mW. The focal point was aimed at the plane of the upper surface of the quartz coverslip, which was used to minimize UV absorption along the optical path towards the cells (FIG. 2A-C). The optical intensity at the focal point was estimated to be 150 mW/mm^2.
# (§2) Ca++ imaging of mouse 1° MK in response to chemical activation of TRPV4 was conducted after loading with 2 μM fura2-AM, following a ratiometric Ca2+ imaging protocol with 340/380 nm […] for dual excitation. Ratios of emissions were acquired at 0.5 Hz. ΔR/R0 was determined as the fraction of the increase of a given ratio over baseline ratio, divided by baseline ratio. For stimulation of cells with UVB, where fura-2 was not suitable because of the proximity of stimulation with 340/380 nm and 295 nm, 2 μM fluo4-AM was used instead. Ca++ imaging was carried out at 488 nm excitation, acquisition of emissions at 0.5 Hz, expressed as ΔF/F0. In the custom-built UV optical system, UV LEDs were capped with a ball lens, a transparent optical window in the shape of a hemispherical lens (FIG. 2B). The LED output optical beam focused at 15-20 mm from the lens, with a spot diameter of approximately 1.5˜2.0 mm (FIG. 2C). […] The thermal equilibration stage was set for physiological temperature.
# To further dissect the underlying mechanisms involved, we built a customized device for specific and narrow-band UVB stimulation of primary mouse epidermal keratinocytes (1° MK) cultured in vitro (FIG. 6A-B and FIG. 2A-D). This allowed use of the Ca++ sensitive dye, fluo-4, and assessment of 1° MK's Ca++ dynamics following UVB exposure (FIG. 6B). The elicited Ca++ signal was obliterated by a UV-refracting glass coverslip, underscoring the strict dependence of the calcium response on UVB (FIG. 6C and FIG. 2A).
# ET1 secretion by 1° MK = experiment: ET1 secretion by non-stimulated 1° MK (ELISA of supernatant); assay type: cell-based, mouse
# Method: FIG. 8: Central role for KC TRPV4 in UVB-evoked Ca^++ signaling and nocifensive behavior—ET1-related supplementary findings. (A) Augmentation of GSK101-evoked Ca^++ signaling by ET1. Shown are averaged Ca^++ measurements (fura-2) in response to 5 nM GSK101. […] (B) ET1 secretion by non-stimulated 1° MK depends on TRPV4 and PLC. Shown are relative ET1 concentrations (determined by ELISA, pg/mL; vehicle-treated and WT control normalized to 100) in supernatant of non-stimulated 1° MK. Note the clear dependence on TRPV4, as indicated by a 50% reduction in Trpv4^−/− 1° MK. […] In addition, PLC-inhibitor robustly affects ET1 secretion in WT and Trpv4^−/− 1° MK. (C) ET1 expression by UVB-exposed 1° MK depends on TRPV4 and PLC—immunocytochemistry. Shown is specific ET1 immunolabeling in 1° MK, exposed to UVB using the UVB-LEDs, as for Ca^++ imaging. Use of the UVB-LED device precluded application of a ET1 ELISA, only irradiated cells could be examined. […] (D) ET1 expression by UVB-exposed 1° MK depends on TRPV4 and PLC—quantification of immunocytochemistry.
# as §1
# TRPV4 [2] = target: T1, TRPV4 (Mus musculus, UniProt Q9EPK8); experiment: GSK101-evoked Ca++ transient in 1° MK (fura-2); assay type: cell-based; conditions: 5 nM GSK101
# T1 construct: Primary mouse keratinocytes were derived from back skin of newborn mice; endogenous in cells; host or cells: primary mouse epidermal keratinocytes (1° MK), wild type
# Method: as §2, with “temperature. We confirmed the non-thermal nature of UVB stimulation using the customized 295 nm LED device in a dedicated experiment (FIG. 2D), thus confirming the specific modality of stimulation as UVB.” for “temperature.”
# We obtained corroborating findings by chemically activating TRPV4 with GSK101, which can directly stimulate TRPV4 in WT 1° MK. […]
# TRPV4 [3] = target: T1, TRPV4; experiment: 4α-PDD-evoked Ca++ signaling in 1° MK with ET1 co-application; assay type: cell-based; conditions: fura-2, ET1 co-application
# Method: FIG. 7: Central role for keratinocyte TRPV4 in UVB-evoked Ca++ signaling and nocifensive behavior—effects of ET1. (A) Effects of ET1 on UVB-evoked Ca++ signaling in 1° MKs. […] Panel (iii) illustrates the complete elimination of the ET1-augmented Ca++ transients when both subtypes of ET(R) are blocked. (B) 4α-PDD-evoked Ca++ signaling in 1° MKs—ET1-related findings. […] Quantifications are for n=3 mice/group. *** denotes statistically significant (p<0.001, t-test). (D) Nocifensive behavior in response to ET1 footpad injection depends on epidermal TRPV4. Bar diagram summarizes behavioral findings for Trpv4−/−vs. WT and for oil-treated vs. tam-treated iKO mice. […] Trpv4−/− and tam-treated iKO mice fail to respond; n≥7 mice/group, ** p<0.01, ANOVA.
# Ca++ imaging of mouse 1° MK in response to chemical activation of TRPV4 was conducted after loading with 2 μM fura2-AM, following a ratiometric Ca2+ imaging protocol with 340/380 nm […] for dual excitation. Ratios of emissions were acquired at 0.5 Hz. ΔR/R0 was determined as the fraction of the increase of a given ratio over baseline ratio, divided by baseline ratio. For stimulation of cells with UVB, where fura-2 was not suitable because of the proximity of stimulation with 340/380 nm and 295 nm, 2 μM fluo4-AM was used instead. Ca++ imaging was carried out at 488 nm excitation, acquisition of emissions at 0.5 Hz, expressed as ΔF/F0. […]
# T1 sequence (Q9EPK8 whole entry): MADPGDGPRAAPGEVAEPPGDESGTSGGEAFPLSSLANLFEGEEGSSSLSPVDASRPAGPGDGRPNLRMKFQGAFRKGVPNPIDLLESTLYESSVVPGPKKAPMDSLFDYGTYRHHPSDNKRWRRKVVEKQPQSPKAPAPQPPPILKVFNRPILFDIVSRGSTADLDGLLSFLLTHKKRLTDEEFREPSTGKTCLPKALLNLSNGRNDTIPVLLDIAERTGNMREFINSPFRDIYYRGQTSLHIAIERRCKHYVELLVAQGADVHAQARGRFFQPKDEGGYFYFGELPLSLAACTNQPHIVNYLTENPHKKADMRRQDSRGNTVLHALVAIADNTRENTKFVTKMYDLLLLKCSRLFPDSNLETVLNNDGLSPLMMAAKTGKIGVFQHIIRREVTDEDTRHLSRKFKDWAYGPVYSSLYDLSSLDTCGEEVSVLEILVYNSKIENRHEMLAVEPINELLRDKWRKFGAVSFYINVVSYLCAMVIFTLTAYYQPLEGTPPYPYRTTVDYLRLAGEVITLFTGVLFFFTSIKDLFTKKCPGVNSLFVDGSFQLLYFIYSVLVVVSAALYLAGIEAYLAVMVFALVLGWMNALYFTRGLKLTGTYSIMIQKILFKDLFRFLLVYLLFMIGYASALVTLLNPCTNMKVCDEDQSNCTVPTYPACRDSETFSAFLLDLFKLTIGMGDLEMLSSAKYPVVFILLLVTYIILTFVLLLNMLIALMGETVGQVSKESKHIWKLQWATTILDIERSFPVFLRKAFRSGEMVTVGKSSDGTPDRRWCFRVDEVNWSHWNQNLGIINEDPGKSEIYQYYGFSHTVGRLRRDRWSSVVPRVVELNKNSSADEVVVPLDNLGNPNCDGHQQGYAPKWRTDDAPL
Compound,ET1 immunoreactivity in UVB-exposed 1° MK (ET1 expression in 1° MK),UVB-evoked Ca++ signaling [1],ET1 secretion by non-stimulated 1° MK (ET1 secretion by 1° MK),other results
COc1ccc2c(c1)CC[C@@H]1[C@@H]2CC[C@]2(C)[C@@H](NCCCCCCN3C(=O)C=CC3=O)CC[C@@H]12 [Compound U73122],dampened; also recorded: significant down-regulation,virtually eliminated; also recorded: strongly reduced,down-regulation of ET1 secretion,
CCCC[C@@H](NC(=O)[C@@H](Cc1cn(C(=O)OC)c2ccccc12)NC(=O)[C@H](CC(C)(C)C)NC(=O)N1[C@H](C)CCC[C@@H]1C)C(=O)O [BQ788],,,,ET1-augmented UVB-evoked Ca++ signaling [1]: attenuated
O=C(O)C(Cc1ccc2c(c1)oc1ccccc12)NCP(=O)(O)O (centres unmarked) [CGS35066],significant down-regulation,significantly diminished; also recorded: significant attenuation,down-regulation of ET1 secretion,
CC(C)NCCN(C(C)C)S(=O)(=O)c1ccc(Cl)cc1Cl [RN1734],diminished; also recorded: significant down-regulation,,significant down-regulation,
endothelin-1 [ET1],,significant increase; also recorded: augmentation,,GSK101-evoked Ca++ signaling on co-exposure to ET1 (TRPV4 [2]): augmented; also recorded: increase in signal; 4α-PDD-evoked Ca++ response (TRPV4 [3]): significant increase
"C=C(C)CCO[P@@](=O)(O)OP(=O)(O)O [IPP, isopentenyl pyrophosphate]",,no effect; also recorded: not inhibited,,
CC(C)C[C@@H]1NC(=O)[C@@H](C(C)C)NC(=O)[C@@H]2CCCN2C(=O)[C@@H](CC(=O)O)NC(=O)[C@@H](Cc2c[nH]c3ccccc23)NC1=O [BQ123] (cyclo(L[dW][dD]P[dV])),,,,ET1-augmented UVB-evoked Ca++ signaling [1]: attenuated
